The nature of test [1]: Glutathione reactivity of the compound in PBS buffer at 100 nM up to 35 mins by LC-MS/Ms analysis.
In test [2] the target is T1, Succinate dehydrogenase [ubiquinone] iron-sulfur subunit, mitochondrial (Homo sapiens) (UniProt P21912).
T1 sequence (whole entry): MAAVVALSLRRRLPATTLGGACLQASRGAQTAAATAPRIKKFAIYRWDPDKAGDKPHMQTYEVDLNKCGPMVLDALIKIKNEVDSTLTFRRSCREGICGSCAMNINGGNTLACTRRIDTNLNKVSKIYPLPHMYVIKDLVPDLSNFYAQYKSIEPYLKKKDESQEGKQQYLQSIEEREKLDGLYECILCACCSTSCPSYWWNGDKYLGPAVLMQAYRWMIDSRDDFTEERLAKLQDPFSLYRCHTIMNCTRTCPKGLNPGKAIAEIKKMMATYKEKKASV
Briefly: Irreversible inhibition of SDHB in human U2OS cells over-expressing Bim assessed as inhibition of apoptosis preincubated for 1 hr followed by compound washout and doxycyclin addition to induce Bim protein expression measured after 24 hrs by Cell Titer-Glo assay. It counts as cell-based. On the technique in general: In ATP-based viability assays light output follows the ATP content of the culture.

Test [3] in a line: Lysine reactivity of the compound at 20 uM after 2 hrs by UPLC analysis.
The test system of test [4] is U2OS. Briefly: Inhibition of mitochondrial-mediated apoptosis in human U2OS cells assessed as reduction in mitochondrial membrane potential loss at 3 nM preincubated for 1 hr followed by doxycyclin addition measured after 4 hrs by TMRM dye based confocal microscopic method. It counts as functional, cell-based.
For test [5], the species on record is Rattus norvegicus. Briefly: Protection against middle cerebral artery occlusion-induced transient focal cerebral ischemia in Sprague-Dawley rat assessed as reduction in brain infarct volume at 50 to 200 uM pretreated for 1 hr followed by reperfusion measured 24 hrs post MCAO by TTC staining based assay. Type of test: functional.
Test [6] can be described thus: Glutathione reactivity of the compound at 20 uM after 2 hrs by UPLC analysis.
Test [7] in a line: Cysteine reactivity of the compound at 20 uM after 2 hrs by UPLC analysis.
Test [8] deals with U2OS. Briefly: Inhibition of mitochondrial-mediated apoptosis in human U2OS cells assessed as reduction in mitochondrial membrane potential loss at 10 uM preincubated for 1 hr followed by doxycyclin addition measured after 4 hrs by TMRM dye based confocal microscopic method. Type of test: functional, cell-based.
Test [9] has as its system U2OS. Put plainly: Inhibition of mitochondrial-mediated apoptosis in human U2OS cells assessed as reduction in ROS level preincubated for 2 hrs followed by doxycyclin addition measured after 4 hrs by DCFH-DA dye based fluorescence assay. Type of test: functional, cell-based.
Test [10] concerns U2OS. Briefly: Inhibition of mitochondrial-mediated apoptosis in human U2OS cells assessed as reduction in mitochondrial membrane potential loss at 100 nM preincubated for 1 hr followed by doxycyclin addition measured after 4 hrs by TMRM dye based confocal microscopic method. Type of test: functional, cell-based.
For test [11], the species on record is Rattus norvegicus. Put plainly: Protection against middle cerebral artery occlusion-induced transient focal cerebral ischemia in Sprague-Dawley rat assessed as reduction in brain infarct volume at 10 to 200 uM pretreated for 1 hr followed by reperfusion measured 24 hrs post MCAO by TTC staining based assay. Type of test: functional.
Test [12] concerns U2OS. Put plainly: Inhibition of apoptosis in human U2OS cells over-expressing Bim assessed as mitochondrial cytochrome c release at 20 uM after 1 hr in presence of doxycyclin by confocal microscopic method. It counts as functional, cell-based.
For test [13], the system named is U2OS. Briefly: Inhibition of mitochondrial-mediated apoptosis in human U2OS cells assessed as reduction in mitochondrial membrane potential loss at 1 uM preincubated for 1 hr followed by doxycyclin addition measured after 4 hrs by TMRM dye based confocal microscopic method. It counts as functional, cell-based.
For test [14], the system named is U2OS. Briefly: Inhibition of apoptosis in human U2OS cells over-expressing Bim assessed as mitochondrial cytochrome c release at 10 uM after 1 hr in presence of doxycyclin by confocal microscopic method. Type of test: functional, cell-based.

Active and inactive are the calls of the source. The rule behind the calls is not given here. Residues, ends and D or L forms follow the SMILES beside them.

Consider `COc1ccc(Cn2cc(-c3cc(C(F)(F)F)nc(S(=O)(=O)CCCC(=O)NC45CC6CC(CC(C6)C4)C5)n3)ccc2=O)cc1OC`, for which the outcome (in test [1]; in the test filed under Rattus norvegicus [5]; in [6]; in [7]) was Active. The inhibition entry (in [2]; in the test with U2OS [4]) was “Active” each time. Further, the result in test [3] was inactive.
Consider `CS(=O)(=O)c1nc(-c2ccc(=O)n(Cc3ccccc3Cl)c2)cc(C(F)(F)F)n1`, for which, in test [2], the inhibition result was “Active”.
For the molecule `CS(=O)(=O)c1nc(-c2cccs2)cc(C(F)(F)F)n1`, the inhibition entry in [2] was “Active”. Moreover, the outcome in [3] was inactive. In addition, the result in test [6] and in test [7] was Active.
In the case of `CS(=O)(=O)c1nc(-c2ccc(=O)n(Cc3ccccc3)c2)cc(C(F)(F)F)n1`, the inhibition entry (in the test with U2OS [8]; in test [2]; in the test on U2OS [9]) was “Active” in each case.
In the case of `COc1cccc(Cn2cc(-c3cc(C(F)(F)F)nc(S(C)(=O)=O)n3)ccc2=O)c1`, the inhibition result (in test [2]; in the test with U2OS [9]) was “Active” throughout.
`COc1ccc(Cn2cc(-c3cc(C(F)(F)F)nc(S(C)(=O)=O)n3)ccc2=O)cc1OC`: the outcome (in test [1]; in the test filed under Rattus norvegicus [11]; in test [6]; in test [7]) was Active. Further, the inhibition result (in the test with U2OS [10]; in test [2]; in the test on U2OS [9]) was “Active” in each case. Moreover, the outcome in test [3] was inactive.
`CS(=O)(=O)c1nc(-c2ccccc2)cc(C(F)(F)F)n1`: the inhibition entry in test [2] is “Active”.
For `CC(C)[C@H](NC(=O)OCc1ccccc1)C(=O)N[C@@H](C)C(=O)N[C@@H](CC(=O)O)C(=O)O` (HELM PEPTIDE1{[O=C(OCc1ccccc1)[*:2]].V.A.D}$$$$V2.0), the inhibition result in the test with U2OS [8] and with U2OS [12] was “inactive” in each case.
As for `CS(=O)(=O)c1nc(-c2ccc(=O)n(Cc3ccc(Cl)cc3)c2)cc(C(F)(F)F)n1`, the inhibition entry (in [2]; with U2OS [13]; in the test with U2OS [9]) was “Active” throughout.
In the case of `CS(=O)(=O)c1nc(-c2ccc(=O)n(Cc3cccc(Cl)c3)c2)cc(C(F)(F)F)n1`, the inhibition result (in test [2]; in the test on U2OS [13]; in the test on U2OS [9]) was “Active” each time.
`CCOC(=O)CCS(=O)(=O)c1nc(-c2cccs2)cc(C(F)(F)F)n1`: the inhibition entry in test [2] is “Active”.
Turning to `Cc1cc(-c2cccs2)nc(S(C)(=O)=O)n1`, the result in test [3], in test [6] and in test [7] was inactive.
Regarding `Cc1ccc(O)c(NC(=O)CCCS(=O)(=O)c2nc(-c3cccs3)cc(C(F)(F)F)n2)c1`, the inhibition entry with U2OS [14] is “Active”.
Regarding `CCCOc1cccc(Cn2cc(-c3cc(C(F)(F)F)nc(S(C)(=O)=O)n3)ccc2=O)c1`, the inhibition entry (in test [2]; in the test on U2OS [9]) was “Active” each time.
As for `COc1ccc(Cn2cc(-c3cc(C(F)(F)F)nc(S(C)(=O)=O)n3)ccc2=O)cc1`, in [2], the inhibition entry is “Active”.

(Values after ChEMBL document CHEMBL3992567, “Discovery of Highly Potent 2-Sulfonyl-Pyrimidinyl Derivatives for Apoptosis Inhibition and Ischemia Treatment” (ACS Med Chem Lett, 2017).)
